Source: PubChem BioAssay AID2060603 (Molecular Pharmacology Branch, DTP, NCI, 2025)
Each block holds one compound with its values, some of them ahead of it.

Test system: 422866-222-R5-J1-PDC spheroid viability
Test: Anticancer human tumor 422866-222-R5-J1-PDC patient-derived pancreatic adenocarcinoma cell line growth inhibition [CLK]
Conditions: spheroids with HUVEC and MSC; for IC50: curve of first compound; for viability, T/C: stronger effect = lower value
Method in brief: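 Patient-derived tumor cells grown as complex spheroids with HUVEC endothelial cells and mesenchymal stem cells, treated with drug combinations. Concentrations descend in half-log steps from near clinical Cmax, or from 10 microM if Cmax unknown.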

[1] = second compound 0.0316 µM, first compound 0.0316 µM
[2] = second compound 0.0316 µM, first compound 0.1 µM
[3] = second compound 0.0316 µM, first compound 0.316 µM
[4] = second compound 0.0316 µM, first compound 1 µM
[5] = second compound 0.0316 µM, first compound 3.16 µM
[6] = second compound 0.0316 µM, first compound 10 µM
[7] = second compound 0.1 µM, first compound 0.0316 µM
[8] = second compound 0.1 µM, first compound 0.1 µM
[9] = second compound 0.1 µM, first compound 0.316 µM
[10] = second compound 0.1 µM, first compound 1 µM
[11] = second compound 0.1 µM, first compound 3.16 µM
[12] = second compound 0.1 µM, first compound 10 µM
[13] = second compound 0.316 µM, first compound 0.0316 µM
[14] = second compound 0.316 µM, first compound 0.1 µM
[15] = second compound 0.316 µM, first compound 0.316 µM
[16] = second compound 0.316 µM, first compound 1 µM
[17] = second compound 0.316 µM, first compound 3.16 µM
[18] = second compound 0.316 µM, first compound 10 µM
[19] = second compound 1 µM, first compound 0.0316 µM
[20] = second compound 1 µM, first compound 0.1 µM
[21] = second compound 1 µM, first compound 0.316 µM
[22] = second compound 1 µM, first compound 1 µM
[23] = second compound 1 µM, first compound 3.16 µM
[24] = second compound 1 µM, first compound 10 µM
[25] = second compound 3.16 µM, first compound 0.0316 µM
[26] = second compound 3.16 µM, first compound 0.1 µM
[27] = second compound 3.16 µM, first compound 0.316 µM
[28] = second compound 3.16 µM, first compound 1 µM
[29] = second compound 3.16 µM, first compound 3.16 µM
[30] = second compound 3.16 µM, first compound 10 µM
[31] = second compound 10 µM, first compound 0.0316 µM
[32] = second compound 10 µM, first compound 0.1 µM
[33] = second compound 10 µM, first compound 0.316 µM
[34] = second compound 10 µM, first compound 1 µM
[35] = second compound 10 µM, first compound 3.16 µM
[36] = second compound 10 µM, first compound 10 µM
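Further: spheroids exposed to agents for seven days before readout.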

IC50 (second compound 0.0316 µM): 1070 nM | IC50 (second compound 0.1 µM): 735 nM | IC50 (second compound 0.316 µM): 298 nM | IC50 (second compound 1 µM): 223 nM | IC50 (second compound 3.16 µM): 181 nM | IC50 (second compound 10 µM): 202 nM
Compound: C#Cc1c(F)ccc2cc(O)cc(-c3ncc4c(N5CC6CCC(C5)N6)nc(OCC56CCCN5CC(F)C6)nc4c3F)c12 (centres undefined) + CNC(=O)c1ccc(Nc2nc(OC3CCCC3)c3c(-c4ccc5nc(C)oc5c4)c[nH]c3n2)c(OC)c1
viability, T/C [1]: 102% | viability, T/C [2]: 93.5% | viability, T/C [3]: 70.8% | viability, T/C [4]: 53.7% | viability, T/C [5]: 32.1% | viability, T/C [6]: 26.1% | viability, T/C [7]: 81.5% | viability, T/C [8]: 67.9% | viability, T/C [9]: 61.9% | viability, T/C [10]: 46.3% | viability, T/C [11]: 33.9% | viability, T/C [12]: 25.6% | viability, T/C [13]: 71.7% | viability, T/C [14]: 60.8% | viability, T/C [15]: 47.2% | viability, T/C [16]: 41.6% | viability, T/C [17]: 33.8% | viability, T/C [18]: 26.8% | viability, T/C [19]: 58.5% | viability, T/C [20]: 58.7% | viability, T/C [21]: 45.1% | viability, T/C [22]: 37.3% | viability, T/C [23]: 28.5% | viability, T/C [24]: 24.6% | viability, T/C [25]: 62.7% | viability, T/C [26]: 51.9% | viability, T/C [27]: 49.6% | viability, T/C [28]: 32.8% | viability, T/C [29]: 39.4% | viability, T/C [30]: 24% | viability, T/C [31]: 64.9% | viability, T/C [32]: 50.5% | viability, T/C [33]: 46.4% | viability, T/C [34]: 42.5% | viability, T/C [35]: 30.5% | viability, T/C [36]: 21.9%

IC50 (second compound 0.0316 µM): < 31.6 nM | IC50 (second compound 0.1 µM): < 31.6 nM | IC50 (second compound 0.316 µM): < 31.6 nM | IC50 (second compound 1 µM): < 31.6 nM | IC50 (second compound 3.16 µM): < 31.6 nM | IC50 (second compound 10 µM): < 31.6 nM
Compound: C=C(F)C(=O)N1CCN(c2nc(OCC3CCCN3C)nc3c2CCN(c2cccc4cccc(Cl)c24)C3)CC1CC#N (centres undefined) + CNC(=O)c1ccc(Nc2nc(OC3CCCC3)c3c(-c4ccc5nc(C)oc5c4)c[nH]c3n2)c(OC)c1
viability, T/C [1]: 39.9% | viability, T/C [2]: 29.7% | viability, T/C [3]: 23.2% | viability, T/C [4]: 25.3% | viability, T/C [5]: 15.7% | viability, T/C [6]: 0.15% | viability, T/C [7]: 38.7% | viability, T/C [8]: 23.9% | viability, T/C [9]: 23.3% | viability, T/C [10]: 20.6% | viability, T/C [11]: 15% | viability, T/C [12]: 0.14% | viability, T/C [13]: 29.8% | viability, T/C [14]: 23.6% | viability, T/C [15]: 25.1% | viability, T/C [16]: 23.1% | viability, T/C [17]: 14.8% | viability, T/C [18]: 0.14% | viability, T/C [19]: 30.3% | viability, T/C [20]: 24.8% | viability, T/C [21]: 22.4% | viability, T/C [22]: 23.3% | viability, T/C [23]: 18.2% | viability, T/C [24]: 4.65% | viability, T/C [25]: 28.4% | viability, T/C [26]: 29.2% | viability, T/C [27]: 24.5% | viability, T/C [28]: 25% | viability, T/C [29]: 20.4% | viability, T/C [30]: 0.15% | viability, T/C [31]: 30% | viability, T/C [32]: 28.4% | viability, T/C [33]: 28.1% | viability, T/C [34]: 24.6% | viability, T/C [35]: 18.5% | viability, T/C [36]: 0.17%
